Laboratory results reported in the supplement of paper PMC11061612.

Legend:
Assay in all cases: Bliss excess, mean over the matrix (fraction); higher = more synergy
[1] = test system: SW1271 (Small Cell Lung Carcinoma)
Method in brief: (§1)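 Cell lines grown in DMEM/F12 or RPMI with 10% FBS were plated in 1536-well plates and held 24 hours at 37°C, 5% CO2 before 72 hours of exposure to two-drug dose matrices, with DMSO typically at 0.2%. CellTiter-Glo 2.0 luminescence gave viability, which was converted to inhibition. Vehicle wells were set to 0 and blank wells to 1. Combination Emax is the second-highest inhibition in the matrix, and Bliss excess is the observed combination effect minus the expected EA + EB − EA·EB, where EA and EB are the single-agent effects.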

[2] = test system: NCI-H28 (Mesothelioma)
Method in brief: as §1

[3] = test system: HCC-15 (Squamous Cell Lung Carcinoma)
Method in brief: as §1

[4] = test system: HDLM-2 (Hodgkin's Lymphoma)
Method in brief: as §1

[5] = test system: MHH-PREB-1 (B-Cell Non-Hodgkin's Lymphoma)
Method in brief: as §1

[6] = test system: TE-4 (Esophageal Squamous Cell Carcinoma)
Method in brief: as §1

[7] = test system: PCI-30 (Head and Neck Carcinoma)
Method in brief: as §1

[8] = test system: CAL-51 (Breast Carcinoma)
Method in brief: as §1

[9] = test system: SW626 (Colorectal Carcinoma)
Method in brief: as §1

[10] = test system: LU-139 (Small Cell Lung Carcinoma)
Method in brief: as §1

[11] = test system: NCI-H2795 (Mesothelioma)
Method in brief: as §1

[12] = test system: SUP-T1 (T-Lymphoblastic Leukemia)
Method in brief: as §1

[13] = test system: SW1116 (Colorectal Carcinoma)
Method in brief: as §1

[14] = test system: CAL-54 (Kidney Carcinoma)
Method in brief: as §1

[15] = test system: KYSE-410 (Esophageal Squamous Cell Carcinoma)
Method in brief: as §1

[16] = test system: OC-314 (Ovarian Carcinoma)
Method in brief: as §1

[17] = test system: Hs-633T (Other Solid Carcinomas)
Method in brief: as §1

[18] = test system: SK-OV-3 (Ovarian Carcinoma)
Method in brief: as §1

[19] = test system: UMC-11 (Other Solid Carcinomas)
Method in brief: as §1

[20] = test system: HMV-II (Melanoma)
Method in brief: as §1

Row | Structure (SMILES) | Bliss excess [1] | Bliss excess [2] | Bliss excess [3] | Bliss excess [4] | Bliss excess [5] | Bliss excess [6] | Bliss excess [7] | Bliss excess [8] | Bliss excess [9] | Bliss excess [10] | Bliss excess [11] | Bliss excess [12] | Bliss excess [13] | Bliss excess [14] | Bliss excess [15] | Bliss excess [16] | Bliss excess [17] | Bliss excess [18] | Bliss excess [19] | Bliss excess [20]
1 | CN(CCO)CC[C@H](CSc1ccccc1)Nc1ccc(S(=O)(=O)NC(=O)c2ccc(N3CCC([C@@H](O)c4ccccc4-c4ccc(Cl)cc4)CC3)cc2)cc1S(=O)(=O)C(F)(F)F [AZD4320] + C=CCn1c(=O)c2cnc(Nc3ccc(N4CCN(C)CC4)cc3)nc2n1-c1cccc(C(C)(C)O)n1 [AZD1775] (first compound max 1 µM, partner max 1 µM) | 0.0152 | 0.0115 | 0.0202 | 0.106 | -0.0454 | -0.0044 | 0.0013 | -0.0122 | -0.0124 | 0.0145 | -0.0225 | 0.0212 | 0.0003 | 0.146 | -0.0313 | -0.0187 | 0.0672 | 0.0069 | -0.0122 | 0.0496
2 | COc1cc2c(cc1OCCCCCOc1cc3c(cc1OC)C(=O)N1C=C(C)C[C@H]1C=N3)N=C[C@@H]1CC(C)=CN1C2=O [SG3199] + O=C(c1cc(Cc2n[nH]c(=O)c3ccccc23)ccc1F)N1CCN(C(=O)C2CC2)CC1 [Olaparib] (first compound max 0.001 µM, 7x7, partner max 10 µM) | -0.0276 | -0.0556 | -0.0166 | -0.0444 | -0.0025 | -0.0319 | -0.0328 | -0.0299 | -0.0362 | -0.0196 | -0.0524 | -0.0478 | -0.0356 | -0.0488 | -0.0334 | -0.036 | -0.0312 | -0.0477 | 0.0084 | -0.0524
3 | Cn1cnc2c(F)c(Nc3ccc(Br)cc3Cl)c(C(=O)NOCCO)cc21 [Selumetinib] + C[C@@H]1COCCN1C2=NC(=NC(=C2)C3(CC3)[S@](=N)(=O)C)C4=C5C=CNC5=NC=C4 [AZD6738] (first compound max 10 µM, 7x7, partner max 10 µM) | 0.0072 | -0.0096 | 0.0787 | -0.0422 | -0.0416 | -0.0063 | -0.0327 | 0.0209 | 0.0756 | -0.0259 | -0.0239 | -0.0747 | -0.0148 | -0.0083 | 0.0274 | -0.0764 | -0.0012 | -0.0424 | 0.0001 | -0.0384
4 | Cn1cnc2c(F)c(Nc3ccc(Br)cc3Cl)c(C(=O)NOCCO)cc21 [Selumetinib] + CCN(CCO)CCCOc1ccc2c(Nc3cc(CC(=O)Nc4cccc(F)c4)[nH]n3)ncnc2c1 [AZD2811] (first compound max 10 µM, 7x7, partner max 1 µM) | -0.0324 | -0.0745 | -0.03 | -0.0267 | -0.0203 | -0.0273 | -0.0396 | 0.0356 | 0.025 | 0.0062 | -0.0238 | 0.0328 | 0.0021 | -0.0129 | 0.0033 | -0.0193 | 0.0395 | -0.0798 | -0.0446 | -0.0477
5 | Cn1cnc2c(F)c(Nc3ccc(Br)cc3Cl)c(C(=O)NOCCO)cc21 [Selumetinib] + CC(C)n1c(=O)n(C)c2cnc3cc(F)c(-c4ccc(OCCCN5CCCCC5)nc4)cc3c21 [AZD1390] (first compound max 10 µM, 7x7, partner max 0.3 µM) | 0.0379 | -0.0403 | 0.0148 | -0.0509 | -0.0218 | -0.0461 | -0.0208 | -0.0271 | -0.0121 | -0.0259 | -0.0439 | -0.0481 | -0.0094 | -0.0377 | -0.0327 | -0.0357 | 0.0303 | -0.0088 | -0.0422 | -0.0262
6 | COc1cccc(OCCCN)c1-c1cc(Nc2cnc(C#N)cn2)n[nH]1 [Prexasertib] + CCc1c2c(nc3ccc(O)cc13)-c1cc3c(c(=O)n1C2)COC(=O)[C@]3(O)CC [SN-38] (first compound max 1 µM, 7x7, partner max 0.3 µM) | -0.088 | -0.074 | 0.0659 | -0.0701 | 0.0153 | 0.107 | 0.0215 | -0.0495 | -0.0156 | -0.0118 | -0.106 | -0.152 | 0.076 | -0.115 | -0.0192 | 0.0061 | -0.0609 | -0.0344 | 0.0774 | -0.0304
7 | COc1nnc2ccc(N3CCC(c4ccc(OCCN5CCN(C)C(=O)[C@H]5C)cc4)CC3)nn12 [AZD5153] + CC1(C)CCC(CN2CCN(c3ccc(C(=O)NS(=O)(=O)c4ccc(NCC5CCOCC5)c([N+](=O)[O-])c4)c(Oc4cnc5[nH]ccc5c4)c3)CC2)=C(c2ccc(Cl)cc2)C1 [Venetoclax] (first compound max 1 µM, 7x7, partner max 1 µM) | -0.108 | 0.0174 | -0.0255 | -0.0645 | -0.055 | -0.0291 | -0.0894 | -0.0513 | -0.0676 | 0.0391 | -0.041 | -0.0766 | -0.036 | -0.0374 | -0.0898 | -0.0149 | -0.0373 | -0.0371 | 0.0234 | -0.0695
8 | COc1nnc2ccc(N3CCC(c4ccc(OCCN5CCN(C)C(=O)[C@H]5C)cc4)CC3)nn12 [AZD5153] + Cc1c2c(nn1C)CSCc1cc(n(C)n1)CSc1cc(c3ccccc3c1)OCCCc1c(C(=O)O)n(C)c3c-2c(Cl)ccc13 [AZD5991] (first compound max 1 µM, 7x7, partner max 1 µM) | -0.0242 | -0.0976 | -0.0105 | -0.0401 | -0.0418 | -0.0212 | -0.0218 | 0.0291 | -0.0374 | -0.0069 | 0.0103 | -0.021 | 0.0091 | -0.0396 | 0.0001 | -0.0625 | 0.0227 | -0.048 | 0.0518 | -0.0092
9 | CCN(CCO)CCCOc1ccc2c(Nc3cc(CC(=O)Nc4cccc(F)c4)[nH]n3)ncnc2c1 [AZD2811] + O=C(c1cc(Cc2n[nH]c(=O)c3ccccc23)ccc1F)N1CCN(C(=O)C2CC2)CC1 [Olaparib] (first compound max 1 µM, 7x7, partner max 10 µM) | -0.0312 | -0.0383 | -0.0123 | -0.0224 | 0.0032 | 0.0049 | -0.031 | 0.0272 | -0.0134 | -0.0495 | 0.052 | 0.0208 | -0.0008 | -0.0073 | -0.0308 | 0.0254 | 0 | -0.041 | -0.0715 | -0.0302
10 | C[C@@H](c1ccc2nccn2c1)n1nnc2ncc(-c3cnn(C)c3)nc21 [Savolitinib] + Cc1c2c(nn1C)CSCc1cc(n(C)n1)CSc1cc(c3ccccc3c1)OCCCc1c(C(=O)O)n(C)c3c-2c(Cl)ccc13 [AZD5991] (first compound max 1 µM, 7x7, partner max 1 µM) | -0.0415 | -0.0643 | -0.0349 | -0.0099 | -0.0375 | -0.0289 | -0.0878 | -0.0115 | 0.0147 | -0.0213 | 0.008 | -0.0571 | -0.0252 | -0.0337 | -0.0749 | -0.018 | -0.0551 | -0.0556 | -0.0026 | -0.0404
11 | CN(C)CCCOc1ccc(-c2ccc3ncc4c(c3c2)n(C2CCOCC2)c(=O)n4C)cn1 [AZD0156] + C[C@@H]1COCCN1C2=NC(=NC(=C2)C3(CC3)[S@](=N)(=O)C)C4=C5C=CNC5=NC=C4 [AZD6738] (first compound max 1 µM, 7x7, partner max 10 µM) | 0.0015 | -0.0606 | -0.0021 | -0.0448 | 0.0147 | 0.0507 | 0.0081 | 0.0198 | -0.0214 | -0.0323 | -0.0643 | -0.0344 | -0.034 | -0.0136 | -0.0201 | 0.0095 | 0.0537 | -0.015 | -0.0176 | -0.0018
12 | Cc1c2c(nn1C)CSCc1cc(n(C)n1)CSc1cc(c3ccccc3c1)OCCCc1c(C(=O)O)n(C)c3c-2c(Cl)ccc13 [AZD5991] + CN(C)CCCOc1ccc(-c2ccc3ncc4c(c3c2)n(C2CCOCC2)c(=O)n4C)cn1 [AZD0156] (first compound max 1 µM, 7x7, partner max 1 µM) | 0.0034 | -0.0024 | 0.0213 | 0.0332 | 0.0081 | 0.0186 | 0.0079 | 0.0198 | 0.0094 | -0.0236 | 0.0192 | -0.0007 | -0.0032 | -0.0036 | -0.028 | 0.0093 | 0.0239 | 0.0106 | 0.0551 | -0.033
13 | COc1cccc(OCCCN)c1-c1cc(Nc2cnc(C#N)cn2)n[nH]1 [Prexasertib] + CN(C)CCCOc1ccc(-c2ccc3ncc4c(c3c2)n(C2CCOCC2)c(=O)n4C)cn1 [AZD0156] (first compound max 1 µM, 7x7, partner max 1 µM) | -0.0183 | -0.0307 | -0.0156 | -0.0727 | -0.0167 | -0.0049 | -0.0637 | 0.0233 | -0.0035 | -0.0244 | 0.05 | -0.0707 | -0.0253 | 0.0611 | -0.03 | 0.009 | -0.0151 | -0.066 | -0.0236 | -0.0143
14 | Cc1cc2ncnn2cc1Nc1ncc2c(n1)n(C1CCOCC1)c(=O)n2C [AZD7648] + C=CCn1c(=O)c2cnc(Nc3ccc(N4CCN(C)CC4)cc3)nc2n1-c1cccc(C(C)(C)O)n1 [AZD1775] (first compound max 10 µM, partner max 1 µM) | -0.0199 | 0.0291 | 0.0339 | -0.0387 | 0.028 | -0.079 | 0.0419 | -0.05 | 0.0341 | -0.0642 | 0.056 | 0.0169 | -0.0172 | 0.016 | -0.0094 | 0.0579 | -0.0333 | -0.0663 | -0.0202 | -0.0714
15 | Cc1cc2ncnn2cc1Nc1ncc2c(n1)n(C1CCOCC1)c(=O)n2C [AZD7648] + CN(C)CCCOc1ccc(-c2ccc3ncc4c(c3c2)n(C2CCOCC2)c(=O)n4C)cn1 [AZD0156] (first compound max 10 µM, 7x7, partner max 1 µM) | 0.0567 | -0.0195 | 0.0013 | -0.0381 | 0.118 | 0.0139 | -0.0411 | -0.0198 | 0.0225 | -0.0306 | -0.025 | -0.0241 | -0.0064 | -0.0384 | -0.0059 | 0.0334 | 0.0271 | -0.0289 | 0.0196 | -0.0169
